USRE36397E, “Inhibitors of poly(ADP-ribose) synthetase and use thereof to treat NMDA neurotoxicity” (The John Hopkins University, priority 1998, dated 1999)
pIC50: −log10 of the molar value. “Also recorded” adds a separate entry of the source. Read-outs that look alike come from different tables or passages of the source. One block for each compound: values may come before it.

How the values were obtained:
[1] = system: primary neuronal cultures from cortex; test: NMDA neurotoxicity in cerebral cortical cultures (trypan blue, % cell death); assay type: cell-based, Sprague-Dawley rats; conditions: for protection against NMDA neurotoxicity (in words): 10 μM 1,5-dihydroxyisoquinoline, 1 mM novobiocin, Table 1A and summary statements
Method: To determine directly if PARS activation participates in NMDA neurotoxicity, we monitored neurotoxicity elicited by NMDA in cerebral cortical cultures in which NO synthase inhibitors provide marked protection (V. L. Dawson et al., Proc. Natl. Acad. Sci. U.S.A. 88, 6368 (1991); V. L. Dawson et al., J. Neurosci. 13, 2651 (1993)) (FIG. 2).
Table 1A, PARS inhibitors were applied 30 min before and during NMDA application. In Table 1B, PARS inhibitors were applied after NMDA administration at the indicated times for 20 to 24 hr. Data are the means ±SEM (n≥8). Each data point represents 4,000-12,000 neurons counted. *p≤0.001 Student's t-test.
(§1) Primary neuronal cultures from cortex were prepared from fetal Sprague-Dawley rats, gestation day 13-14. Mature neurons (grater than 21 days in culture) were used in all experiments.
(§2) Neurotoxicity was determined by exposing the neurons to the various test solutions as previously described (Dawson, supra). […], SNP or SNAP were applied to the cells for 5 min, then the cells were washed and replaced with MEM, 21 mM glucose overnight in the incubator. Twenty to 24 hr after exposure to test solutions, the neurons were exposed to 0.4% trypan blue in CSS to stain the residue of non-viable cells and to assess toxicity. Viable and non-viable cells were counted. At least two separate experiments utilizing four separate wells were performed for each data point shown. Significant overall values were obtained by using a one-way, between groups analysis of variance. Specific comparisons on all possible pair combinations were made with the Student's t-test for independent means.

[2] = biological target: PARS (poly(ADP-ribose) synthetase) (Rattus norvegicus, UniProt P27008); test: PARS activity in rat brain nuclear extracts; assay type: biochemical; conditions: for activity at 20 µM: read-out: PARS activity, % of basal levels
PARS (poly(ADP-ribose) synthetase), sequence (P27008 whole entry): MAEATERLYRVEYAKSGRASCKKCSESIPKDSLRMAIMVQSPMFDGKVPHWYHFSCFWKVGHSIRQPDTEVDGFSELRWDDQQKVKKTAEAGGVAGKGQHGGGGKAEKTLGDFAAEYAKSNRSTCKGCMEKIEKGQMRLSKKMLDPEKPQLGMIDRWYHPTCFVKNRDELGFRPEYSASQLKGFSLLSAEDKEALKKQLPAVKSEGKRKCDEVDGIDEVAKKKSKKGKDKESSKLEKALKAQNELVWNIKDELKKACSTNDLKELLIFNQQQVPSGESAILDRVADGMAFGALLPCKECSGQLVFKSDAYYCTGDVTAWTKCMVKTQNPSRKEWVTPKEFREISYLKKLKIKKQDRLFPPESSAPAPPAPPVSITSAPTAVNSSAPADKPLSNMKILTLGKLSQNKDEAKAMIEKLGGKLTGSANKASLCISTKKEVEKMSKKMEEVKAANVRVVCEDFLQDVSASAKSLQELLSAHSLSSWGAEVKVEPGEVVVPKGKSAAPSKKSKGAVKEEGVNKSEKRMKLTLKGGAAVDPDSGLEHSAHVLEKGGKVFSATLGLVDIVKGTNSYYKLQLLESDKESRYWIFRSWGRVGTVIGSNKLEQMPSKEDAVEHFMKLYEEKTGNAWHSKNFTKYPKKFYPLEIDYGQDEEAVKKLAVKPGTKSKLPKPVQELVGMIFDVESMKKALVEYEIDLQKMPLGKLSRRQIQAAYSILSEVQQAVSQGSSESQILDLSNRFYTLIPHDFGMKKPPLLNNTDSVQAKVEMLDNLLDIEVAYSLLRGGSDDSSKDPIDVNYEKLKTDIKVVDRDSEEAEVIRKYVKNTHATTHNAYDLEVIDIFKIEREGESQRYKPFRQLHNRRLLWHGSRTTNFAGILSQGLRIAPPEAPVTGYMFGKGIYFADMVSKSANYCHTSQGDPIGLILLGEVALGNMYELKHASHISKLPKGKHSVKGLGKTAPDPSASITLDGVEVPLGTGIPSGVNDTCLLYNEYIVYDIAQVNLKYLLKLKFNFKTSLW
Text: Inhibitors of poly(ADP-ribose) synthetase are compounds which compete for the substrate binding site of poly(ADP-ribose) synthetase or other sites on the enzyme, and include both reversible and irreversible inhibitors. The present invention contemplates the use of any physiologically acceptable inhibitor which inhibits poly(ADP-ribose) synthetase activity. The effectiveness of a compound, and its relative potency as a poly(ADP-ribose) synthetase inhibitor, can be tested and routinely determined by measuring inhibition of poly(ADP-ribose) synthetase activity. Poly(ADP-ribose) synthetase activity can be assayed according to the method of Schranfstatter, et al., J. Clin. Inves. 77, 1312 (1986).
Whole brains from 1-day old rats were homogenized in 20% (w/v) buffer A [50 mM Tris-HCl (pH 7.4), 1 mM EDTA, 1 mM DTT, 50 mM NaCl, 0.25M sucrose, 0.2 mM phenylmethylsulfonyl fluoride, 1 μg/ml each of chymostatin, leupeptin, pepstatin and trypsin inhibitor]. The homogenate was centrifuged at 1000 g for 15 min. The pellet was washed with buffer A and centrifuged again. The washed pellet, termed nuclear fraction, was resuspended in buffer A. PARS activity was assayed according to I. U. Schranfstatter, et al., J. Clin. Inves. 77, 1312 (1986). Each 50 μl assay mixture contained 10 μg of the nuclear protein fraction and [adenylate-^32 P]

[3] = system: pancreatic islet cells; conditions: Kallman et al. 1992; cited from earlier work
[4] = system: PARS; conditions: cited from earlier work; for relative potency as PARS inhibitor (in words): family of benzamide and its derivatives
[5] = system: brain NOS; test: Nitrite formation in human kidney 293 cells stably transfected with brain NOS cDNA; assay type: cell-based; conditions: for nitrite formation: A23187 (10 μM), 2 hr, inhibitors 100 μM, n=3
Text: (§3) To ascertain whether NO itself elicits neurotoxicity by activation of PARS, we administered the NO releasers SNP and S-nitroso-N-acetylpenicillamine (SNAP). […] In human kidney 293 cells stably transfected with the cDNA of brain.

[6] = Direct interaction of benzamide with SNP/NO (HPLC recovery); assay type: physicochemical
[7] = system: primary neuronal cultures from cortex; test: SNP and SNAP (NO releaser) neurotoxicity in cortical neuronal cultures; assay type: cell-based, Sprague-Dawley rats; conditions: for inhibition at 100 µM: Rattus norvegicus, Primary cortical neuron
Method: as §1, §2, §3

[8] = Table 1A, 500 μM NMDA + 100 μM compound, 30 min before and during NMDA
[9] = Table 1A, 500 μM NMDA + 1 mM compound, 30 min before and during NMDA

activity at 20 µM ([2]; inhibitor 20 μM, NO-treated DNA, FIG. 1A): < 5%
Compound: Oc1cccc2c(O)nccc12 [1,5-dihydroxyisoquinoline]
protection against NMDA neurotoxicity (in words) [1]: neuroprotective | protection against NMDA neurotoxicity (in words) ([1]; listed as 1,5-dihydroxy-isoquinoline): found to prevent neurotoxicity | % Cell Death (± S.E.M.) ([1]; Table 1A, 500 μM NMDA + 10 μM compound, 30 min before and during NMDA): 39.0 ± 4.5%

Compound: NC(=O)c1cccc(N)c1 [3-aminobenzamide]
protection of pancreatic islet cells from macrophage cytotoxicity [3]: protects pancreatic islet cells from macrophage cytotoxicity | relative potency as PARS inhibitor (in words) ([4]; relative to benzamide): about half as potent | protection against NMDA neurotoxicity (in words) [1]: found to have the ability to prevent neurotoxicity; also recorded: somewhat less protection | % Cell Death (± S.E.M.) [1, 8]: 45.9 ± 5.1%

activity at 20 µM [2]: < 5%
Compound: Nc1ccc2c3c(cccc13)C(=O)NC2=O [4-amino-1,8-naphthalimide]

Compound: NC(=O)c1ccc(N)cc1 [4-aminobenzamide]
fold weaker than benzamide as PARS inhibitor ([4]; relative to benzamide): 50-100 fold | % Cell Death (± S.E.M.) [1, 8]: 55.8 ± 7.6%

Compound: CNc1ccc2oc(C[C@H]3O[C@@]4(CC[C@H]3C)O[C@H]([C@H](C)C(=O)c3ccc[nH]3)[C@H](C)C[C@H]4C)nc2c1C(=O)O [A23187]
nitrite formation [5]: 17.1±2.1 μM nitrite

Compound: O=C(O)c1ccccc1 [Benzoic acid]
relative potency as PARS inhibitor (in words) ([4]; relative to benzamide): inactive | protection against NMDA neurotoxicity (in words) [1]: found not to have any activity | protection against NMDA neurotoxicity (in words) ([1]; listed as benzoic acid): inactive | % Cell Death (± S.E.M.) [1, 9]: 58.9 ± 5.7%

Compound: CN[C@H](CC(=O)O)C(=O)O [NMDA, N-methyl- D-aspartate]
% Cell Death (± S.E.M.) ([1]; Table 1A, 500 μM NMDA alone): 57.1 ± 4.7% | % Cell Death (± S.E.M.) ([1]; Table 1B, 500 μM NMDA alone): 74.7 ± 7.8%

effect on PARS activity by itself ([2]; SNP 1 mM, SIN-1 1 mM or untreated DNA, alone): no effects on PARS
Compound: [NH-]c1c[n+](N2CCOCC2)no1 [SIN-1, 3-morpholinosyndnonimine]

Compound: NC(=O)c1ccccc1 [benzamide]
pIC50 ([4]; in vitro, Banasik et al. 1992, read-out: IC50 for inhibiting PARS in vitro): 4.66 | interaction with NO [6]: did not interact; also recorded: did not interact with NO | recovery of benzamide after incubation with SNP ([6]; benzamide 1 mM, SNP 1 mM, five days, 25° C., HPLC C18, 7200 min): 100% | protection against NMDA neurotoxicity (in words) [1]: found to prevent neurotoxicity | protection against NMDA neurotoxicity (in words) ([1]; listed as Benzamide): greatest degree of protection | protection against NMDA neurotoxicity ([1]; 50 μM): no significant protection was detected | reduction of NMDA mediated neurotoxicity ([1]; 100 μM, FIG. 2 legend): reduces | greater protection than at 100 μM ([1]; 500 μM versus 100 μM): about 30% | inhibition at 100 µM ([1]; Rattus norvegicus, Primary cortical neuron, read-out: protection against NMDA neurotoxicity): 40 to 50% | % Cell Death (± S.E.M.) ([1]; Table 1A, 500 μM NMDA + 50 μM compound, 30 min before and during NMDA): 60.1 ± 12.1% | % Cell Death (± S.E.M.) [1, 8]: 39.5 ± 5.0% | % Cell Death (± S.E.M.) ([1]; Table 1A, 500 μM NMDA + 500 μM compound, 30 min before and during NMDA): 21.9 ± 4.1% | % Cell Death (± S.E.M.) ([1]; Table 1B, 100 μM compound applied 5 min after 500 μM NMDA): 35.6 ± 8.7% | % Cell Death (± S.E.M.) ([1]; Table 1B, 100 μM compound applied 30 min after 500 μM NMDA): 40.4 ± 5.6% | % Cell Death (± S.E.M.) ([1]; Table 1B, 100 μM compound applied 1 hour after 500 μM NMDA): 43.4% | reduction of SNAP mediated neurotoxicity ([7]; 100 μM, SNAP (300 μM), FIG. 2 legend): reduces | reduction of SNP mediated neurotoxicity ([7]; 100 μM, SNP (500 μM), FIG. 2 legend): reduces | inhibition at 100 µM ([7]; SNAP, read-out: reduction of SNAP neurotoxicity): 45 to 50% | inhibition at 100 µM ([7]; SNP, read-out: reduction of SNP neurotoxicity): 45 to 50%

Compound: CO[C@@H]1[C@@H](OC(N)=O)[C@@H](O)[C@H](Oc2ccc3c(O)c(NC(=O)c4ccc(O)c(CC=C(C)C)c4)c(=O)oc3c2C)OC1(C)C [novobiocin]
protection against NMDA neurotoxicity (in words) [1]: found not to have any activity in preventing neurotoxicity; also recorded: ineffective | % Cell Death (± S.E.M.) [1, 9]: 62.4 ± 8.9%

Compound: nitroarginine
effect on NOS / stimulated nitrite levels ([5]; 100 μM): abolished | nitrite formation [5]: 3.9±1.6 μM nitrite
